Here are results for eight molecules from paper PMC5412877, “Discovery of a PCAF Bromodomain Chemical Probe” (Angewandte Chemie (International Ed. in English), 2016).

For data set [1], the target named is T1, PCAF Brd (Homo sapiens, UniProt Q92831).
T1 construct: Human bromodomains were cloned, expressed and purified as previously described; made in house
T1 sequence (Q92831 723-827 limits assumed): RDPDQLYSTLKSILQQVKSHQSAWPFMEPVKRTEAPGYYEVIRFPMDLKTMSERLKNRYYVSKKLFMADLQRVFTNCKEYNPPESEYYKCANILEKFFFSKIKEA
The data set is described as follows: Differential scanning fluorimetry (DSF), PCAF Brd. Type of data set: binding. As to conditions: for ΔT m [°C] PCAF (DSF): compound concentration 10 μM. How it is done: (§1) Protein Expression and Purification
(§2) Human bromodomains were cloned, expressed and purified as previously described.[1]
(§3) Differential Scanning Fluorimetry (DSF)
(§4) Thermal melting points were recorded using an Mx3005p Real Time PCR Machine (Stratagene).
(§5) Subject proteins were buffered in 10 mM HEPES at pH 7.5, 500 mM NaCl and assayed in a 96-well […]
(§6) plate at a final concentration of 2 μM in 20 μL volume. Compounds were then added to a final […]
(§7) concentration of 10 μM. SPYRO Orange (Molecular Probes) was used as a fluorescent probe at a […]
(§8) dilution of 1:1000. Excitation and emission filters for the SPYRO-Orange dye were set to 465 nm and […]
(§9) 590 nm, respectively. The temperature was raised with a step of 3 °C/min from 25 °C to 96 °C and […]
(§10) fluorescence readings were taken at each interval. Data was analysed as previously described.[2]
(§11) Bromodomain affinity selectivity panel of (S)-11
(§12) Supplemental Figure 1. DSF Selectivity panel of (S)-11 against 48 human Bromodomains. […]
(§13) ┼Mean ΔTm ± SEM (number of measurements= 2). Compound concentration: 10 μM […]
(§14) (1 picture or pasted object on this page, not shown here)
(In general: DSF heats the sample and reads unfolding from a dye or from intrinsic fluorescence.)

The target of data set [2] is T1, PCAF Brd. The data set is described as follows: Isothermal titration calorimetry (ITC), PCAF Brd. Type of data set: binding. As to the method:
Isothermal Titration Calorimetry (ITC)
Experiments were carried out on a Nano-ITC Standard Volume Instrument (TA Instruments). All experiments were carried out at 25 °C in 20 mM HEPES pH 7.5, 150 mM NaCl, 0.5 mM TCEP and 5% glycerol. Protein solutions were buffer exchanged by gel filtration. The titrations were conducted using an initial injection of 2 μL followed by 32 injections of 8 μL. Background dilution heat was substracted from each experiment. Thermodynamic parameters were calculated using ΔG = ΔH-T ΔS = -RTlnKB , where KD = 1/KB. ΔG, ΔH and ΔS are changes in free energy, enathalpy and entropy resepectively. Independent single site binding models were employed in data analysis.
Supplemental Figure 3. ITC trace of D-Moses and PCAF Brd […]
A general note: ITC needs no label: the signal is the heat of the interaction.

Data set [3] is described as follows: Kinetic solubility. Type of data set: physicochemical. To be noted: kinetic from dmso stock.
Data set [4] can be described thus: Metabolic stability in human liver microsomes. Type of data set: in vitro ADME. To be noted: for microsomal CLint: human liver microsomes, n 5, read-out: CLint (μL/min/mg protein) human. As to the method: (§15) In vitro Metabolism Studies
(§16) Metabolic stability studies were carried out exposing nominated compounds to samples of liver microsomes. Compounds were analysed by LC-MS for loss of compound at 0, 5, 15, 30 and 45 minute time points. The rate of metabolic degradation of compounds was used to calculate CLint, SE CLint, t1/2 (summarised in supplemental table 2.)
(§17) Supplemental Table 4. In vitro metabolic stability of compounds DL-45/DL-Moses and 39 Compound Metbolic Stability (Human) Metbolic Stability (Mouse) […]
In general terms: Liver microsomes are a subcellular fraction often used to study metabolism.

For data set [5], the target named is T2, GCN5L2 (Homo sapiens, UniProt Q92830).
T2 construct: made in house
T2 sequence (Q92830 728-832 limits assumed): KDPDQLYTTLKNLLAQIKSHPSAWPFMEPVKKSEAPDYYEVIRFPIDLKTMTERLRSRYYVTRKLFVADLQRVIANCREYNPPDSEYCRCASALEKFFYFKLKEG
As to the kind of experiment: Differential scanning fluorimetry (DSF), GCN5 (GCN5L2) Brd. As to conditions: compound 10 μM. The data set is classed as binding. How it is done:
as §1, §2, §3, §4, §5, §6, §7, §8, §9, §10, §11, §12, §13, §14

The nature of data set [6]: Metabolic stability in mouse liver microsomes. The data set is classed as in vitro ADME. To be noted: for microsomal CLint: mouse liver microsomes, n 5, read-out: CLint (μL/min/mg protein) mouse. As to the method:
as §15, §16, §17

The subject of data set [7] is MDCK‐MDR1 cells. The data set is described as follows: Permeability in MDCK-MDR1 cells. Type of data set: in vitro ADME.
Data set [8] deals with T3, GST-PCAFBRD (Homo sapiens, UniProt Q92831).
T3 construct: Final assay concentrations: GST-PCAFBRD (20 nM)
T3 sequence (Q92831 723-827 limits assumed): T1 sequence (Q92831 723-827 limits assumed)
The data set is described as follows: HTRF assay, displacement of biotinylated compound 46 from GST-PCAF Brd. The data set is classed as binding. To be noted: GST-PCAF Brd; read-out: KD of compound 46 used for Cheng-Prusoff. How it is done:
obtained from 5 healthy donors. PBMC were cultured either with D-Moses or L-Moses at concentrations of 0.1, 1 and 10 μM or with a control (DMSO) for 24 hours. Viability of PBMC were then checked using LIVE/DEAD Fixable Aqua Dead Cell Stain Kit (ThermoFisher Scientific).
High Throughput Time Resolved Fluorescence Assay (HTRF)
HTRF assay was carried out using a Cisbio Epigenous kit B (62BDBPEH) using the standard assay protocol with GST-PCAFBRD.[3] Final assay concentrations: GST-PCAFBRD (20 nM), SA-XL665 (62.5 nM), α-GST donor (62.5 nM), compound 46 (500 nM). Ki was calculated using the Cheng-Prussof equation […]
Recombinant PfGCN5 (bromodomain only) was expressed in E. coli and purified using a previously described system. The protein crystallized with the compound L-45 at 293 K in 0.1M CaCl2, 30% PEG 8k, 0.2 M NH4SO4. The concentrations of the protein sample and the compound were 10 mg/ml […]
X-ray diffraction data for the crystal was collected at 100 K at the beamline 08ID-1 of the Canadian Macromolecular Crystallography Facility. The dataset was processed using the HKL-2000 suite, and the structure solved using Phaser, a component of the CCP4 suite with molecular replacement model 4QNS. […]

The target of data set [9] is T4, PCAF‐Brd histone H3.3 interaction (Homo sapiens, UniProt Q92831).
T4 construct: NanoLuciferase fusion of the isolated bromodomain of PCAF; expressed in transfected cells; host or cells: HEK293
T4 sequence (Q92831 723-827 limits assumed): T1 sequence (Q92831 723-827 limits assumed)
The data set is described as follows: nanoBRET target engagement assay, PCAF-Brd / histone H3.3 in HEK293 cells. To be noted: live HEK293 cells; compounds 5 μM, 18 h. Type of data set: cell-based. How it is done: page 48: NanoLuciferase Bioluminescent Resonance Energy Transfer (NanoBRET) Assay Methods HEK293 cell (8 x 105) were plated in each well of a 6-well plate and co-transfected with Histone H3.3- HaloTag (NM_002107) and a NanoLuciferase fusion of the isolated bromodomain of PCAF. Twenty hours post-transfection, cells were collected, washed with PBS, and exchanged into media containing phenol red-free DMEM and 4% FBS in the absence (control sample) or the presence (experimental sample) of 100 nM NanoBRET 618 fluorescent ligand (Promega). Cell density was adjusted to 2 x 10^5 cells/ml and then re-plated in a 96-well assay white plate (Corning Costar #3917). […] Readings were performed within 5 minutes using a Glo-MAX Discover instrument (Promega) equipped with 450/8 nm bandpass and 600 nm longpass filters with a 0.3 sec reading setting. A corrected BRET ratio was calculated and is defined as the ratio of the emission at 600 nm/450 nm for experimental samples (i.e. those treated with NanoBRET fluorescent ligand) subtracted by and the emission at 600 nm/450 nm for control samples (not treated with NanoBRET fluorescent ligand). BRET ratios are expressed as milliBRET units (mBU), where 1 mBU corresponds to the corrected BRET ratio multiplied by 1000. […] Compounds were analysed by LC-MS for loss of compound at 0, 5, 15, 30 and 45 minute time points. […]

Data set [10] has as its system 48 human Brds. As to the kind of experiment: DSF selectivity panel of 48 human bromodomains. Type of data set: binding. As to conditions: compound 10 μM.
[11] abbreviates: Table 2, read-out: K D (nM) (ITC) PCAF Brd.
[12] abbreviates: read-out: GCN5L2 ΔTm (°C) (DSF).
Setting [13] is: Supplemental Table 3, compound concentration 30 μM, protein concentration 280-320 μM, read-out: PCAF KD (μM) (ITC).

“Also recorded” adds a separate entry of the source. Like-named read-outs stand apart in the source and are kept apart here. A value given as a limit tells only on which side of the number the result lay.

What is called kinetic solubility is solubility judged after dilution from a stock solution rather than from solid. A word on the ΔTm: it is the shift of the melting midpoint relative to a reference. For `Cc1nnc2c3ccccc3c(N[C@@H](C)[C@H](c3ccccc3)N(C)C)nn12` (relative stereo) [Compound 45], the “ΔT m [°C] PCAF (DSF)” value in data set [1] is 7.9 °C. The Kd in [2] (setting [11]) is 168 ± 27 nM. In data set [3], this molecule showed a solubility (kinetic) of over 200 µM. The microsomal CLint in [4] is 35 µL/min/mg. The ΔTm at 10 µM in data set [5] (setting [12]) was 5 °C. In data set [6], the microsomal CLint turned out to be 37 µL/min/mg. In addition, in data set [7], the “efflux in MDCK‐MDR1 cells” value is “low efflux” and the “permeability in MDCK‐MDR1 cells” value is reported as “good”.
Consider `Cc1nnc2c3ccccc3c(NCC(NCCCCNC(=O)CCOCCOCCOCCOCCNC(=O)CCCCC3SCC4NC(=O)NC43)c3ccccc3)nn12` (centres unmarked) [compound 46, reference compound], for which, in data set [8], the Kd was 400 nM.
For `Cc1nnc2c3ccccc3c(NC(C)C(c3ccccc3)N(C)C)nn12` (centres unmarked) [D‐45], the Kd in data set [2] (setting [13]) is over 30000 nM. The “K D (nM) (ITC) PCAF Brd” value in data set [2] (Table 2) is listed as “no observable binding; also recorded: Inactive”. In data set [9], the “displacement of PCAF‐Brd from H3.3 in nanoBRET assay” value was “no effect”.
For the molecule `Cc1nnc2c3ccccc3c(N[C@@H](C)CN(C)C)nn12` [(S)‐11], the ΔTm at 10 µM in [1] (Supplemental Table 1, number of measurements 2, compound 10 μM, read-out: PCAF ΔTm (°C), mean ± SEM) is 5.4 °C; in [5] (Supplemental Table 1, number of measurements 2, read-out: GCN5L2 ΔTm (°C), mean ± SEM), 3.7 °C; in data set [5] (setting [12]), 4 °C. In addition, in data set [1], the “ΔT m [°C] PCAF (DSF)” value came to 7.4 °C. Moreover, the Kd turned out to be 284 nM in data set [2] (setting [13]) and 280 ± 29 nM in data set [2] (Table 1, read-out: K D [μM] (ITC) PCAF Brd). For the same molecule, the “selectivity in DSF panel of 48 human Brds” value in data set [10] is “no observable activity against other Brds”.
Turning to `Cc1nnc2c3ccccc3c(N[C@@H](C)[C@H](c3ccc(F)cc3)N(C)C)nn12` (relative stereo) [Compound 39], the “ΔT m [°C] PCAF (DSF)” value in [1] amounted to 8.3 °C. In data set [2] (setting [11]), the Kd stood at 195 ± 23 nM. For the same molecule, the figures for the microsomal CLint in [4] and in data set [6] were 29 µL/min/mg and 21 µL/min/mg, respectively. Besides, the half-life came to 48 min in data set [4] (human, liver microsomes, read-out: t1/2 human liver microsomes) and 65 min in data set [6] (mouse, liver microsomes, read-out: t1/2 mouse liver microsomes). In addition, the ΔTm at 10 µM in data set [5] (setting [12]) amounted to 4.4 °C.
Turning to `Cc1nnc2c3ccccc3c(N[C@@H]3CCCN(Cc4ccccc4)C3)nn12` [Compound 64], the “ΔT m [°C] PCAF (DSF)” value in [1] is 1.1 °C. Further, in [2] (setting [13]), the Kd is over 30000 nM. Also, the “GCN5L2 ΔTm (°C) (DSF)” value in [5] is 0.5 °C.
As for `Cc1nnc2c3ccccc3c(N[C@@H](C)[C@H](c3ccc(Cl)cc3)N(C)C)nn12` [Compound 42], the “ΔT m [°C] PCAF (DSF)” value in data set [1] stood at 6.2 °C. Moreover, the Kd in [2] (setting [11]) was 223 ± 78 nM. In data set [5] (setting [12]), the ΔTm at 10 µM worked out at 2.7 °C.
Take `COc1ccc([C@@H]([C@H](C)Nc2nn3c(C)nnc3c3ccccc23)N(C)C)cc1` [Compound 44]: the “ΔT m [°C] PCAF (DSF)” value in [1] came out at 10.3 °C. In data set [2] (setting [11]), the Kd is 179 ± 48 nM. Besides, in data set [5] (setting [12]), the ΔTm at 10 µM came to 6.8 °C.
